In patent publication US20070270392A1, “Use of a Cyclopentenone Prostaglandin for Delaying the Onset and/or Preventing the Continuation of Labour” (Imperial College Innovations Limited, priority 2003, published 2007):

What was measured:
Type in all cases: cell-based, human
[1] = test system: NF-κB; assay: NF-κB-dependent luciferase reporter (κB.BG.Luc) in myometrial cells; details: for IL-1-induced NF-κB transcriptional activity: treated 2 h, IL-1β 1 ng/ml 6 h
Description: Myometrial cells were transiently transfected with the NFκB-dependent reporter construct κB.BG.Luc, treated with 15dPGJ2 or vehicle for 2 h, +/−IL-1β(1 ng/ml) for 6 h. […] Values are normalised for b-gal reporter activity. (NS=nonstimulated).
Myometrial cells were transfected with […] κB.BG.Luc reporter and 200 ng PPAR-γ expression vector and treated with 15d-PGJ2 for 2 h followed by IL-1β (1 ng/ml) for 6 h. Values are normalised for β-galactosidase reporter activity. (NS=nonstimulated).
(§1) Myometrial tissue was collected at term from the upper margin of uterine incision at the time of lower segment caesarean section either prior to the onset of labour (L−) or […] (L+). L+ samples were collected by Dr Mark Johnson and Dr S Soorrana at Chelsea & Westminster Hospital. Myometrial tissue was dissected, rinsed in PBS, and digested in serum-free DMEM containing 15 mg/ml collagenase 1A (Sigma), 15 mg/ml collagenase X, and 50 mg/ml bovine serum albumin for 45 min at 37° C. The cell suspension was filtered through a cell strainer, centrifuged at 400 g for 5 min, and the pellet re-suspended and plated out in DMEM, 10% FCS (Helena BioScience), 1% L-glutamine, 1% penicillin-streptomycin. Cells were used between passage numbers 1-4.
pGL3.6 κB.BG.luc: a NF-κB-dependent reporter construct with 6 copies of the NF-κB binding site.
Cells were co-transfected with the renilla vector pRL-CMV or a β-galactosidase vector pCH110 as internal controls for transfection efficiencies.

[2] = test system: NF-κB; assay: Western immunoblot of NF-κB activation (p65, p50, IκB) in myometrial cells; parameters: Accumulation of phosphorylated IκBα: dose or concentration left out as unconfirmed
Description: Western immunoblots of nuclear or cytosolic protein extracts from (A) myometrial cells, (B) L− amnion cells, and (C) L+amnion cells treated with 15dPGJ2 or vehicle for 2 h+/−IL-1, stimulation (15 min). Blots probed with antibodies against p65, p50 or IκBα.
Western immunoblot of nuclear or cytosolic protein extracts from myometrial cells treated with PGA1 or vehicle for 2 h followed by IL-1β stimulation (15 min). Blots probed with antibodies against p65 or IκBa.
(§2) Analysis of nuclear protein extracts from myometrial cells treated with PGE2 or vehicle for 2 h+/−TNFα or IL-1b stimulation (15 min). (A) EMSA using consensus κB probe. (B) Western immunoblot probing for nuclear p65.
(§3) Western immunoblots of cytosolic extracts from myometrial cells (A) treated with 15dPGJ2 for 2 h+/−IL1b for 15 min; probed for IKK, and (B) treated with […] 15dPGJ2, […] MG132 or vehicle for 2 h, +/−IL-1β for 15 min; probed for IκBα.
as §1
(§4) Nuclear and cytosolic protein extracts were obtained from cultured amnion cells as described by Schreiber et al (1989). For nuclear/cytosolic fractionation, confluent cell monolayers were scraped and lysed using a buffer containing 10 mM HEPES, 10 mM KCl, 0.1 mM EDTA, 0.1 mM EGTA, 2 mM DTT, 1% (v/v) NP-40 and complete protease inhibitor tablets (CPIs, Roche), diluted to manufacturer's instructions. Cell lysates were incubated on ice for 10 min and NP-40 added to a final concentration of 1% (v/v). Lysates were vortexed for 10 secs and centrifuged for 30 secs at 4° C., 12000 g. The supernatants were retained as the cytosolic protein extracts. The pellets were resuspended in buffer containing 10 mM HEPES, 10 mM KCl, 0.1 mM EDTA, 0.1 mM EGTA, 2 mM DTT, 400 mM NaCl, 1% NP-40 (v/v) and CPIs. Samples were shaken vigorously for 15 min in an ice bath. The nuclear protein extracts were obtained in the supernatant following a 5 min centrifugation at 4° C., 12000 g.
(§5) Protein samples (20-70 μg) were mixed with Laemmli sample buffer (1:1) containing β-mercaptoethanol (5%), and boiled for 5 min. Proteins were then separated by SDS-PAGE (12-14% gels) and transferred onto PVDF membrane (Amersham Pharmacia Biotech). The membranes were blocked overnight in 5% non-fat milk prepared in PBS-T buffer, at 4° C. The blots were incubated with the primary antibody in 1% non-fat milk in PBS-T buffer for 1 h, and washed three times (10 min each) in PBS-T with vigorous shaking. The blots were then incubated with HRP-conjugated secondary antibody (diluted 1:2000 in 1% non-fat milk in PBS-T buffer) for 1 h and washed three times (10 min each) in PBS-T. Signal detection was achieved using enhanced chemi-luminescence (ECL plus system, Amersham Pharmacia Biotech) according to manufacturer's instructions.
(§6) 30-50 μg protein extracts were subjected to SDS-PAGE and Western immuno-blotting. Secondary antibodies were IgG-HRP and ECL Plus detection kit (Amersham Pharmacia Biotech, Amersham Place, Little Chalfont, Bucks, HP7 9NA) was used for visualisation.

[3] = test system: NF-κB; assay: EMSA of NF-κB DNA binding in nuclear extracts of treated myometrial cells; details: for IL-1β-induced NF-κB DNA binding: myometrial cells, treated 2 h, IL-1β stimulation 15 min
Description: Electro-mobility shift assay (EMSA) analysis of NF-κB DNA binding in nuclear protein extracts from (A) myometrial cells, (B) L+amnion cells, and (C) L− amnion cells treated with 15dPGJ2 or vehicle for 2 h+/−IL-1b stimulation (15 min). Consensus kB probe used to assess NF-κB DNA binding, and consensus Oct-1 probe used as control.
Consensus κB probe used to assess NF-κB DNA binding, consensus Oct-1 probe used as control. For supershift analysis, extracts were preincubated with antibodies against p50 or p65.
EMSA analysis of nuclear protein extracts from myometrial cells treated with (A) WY-14643 or vehicle, and (B) high doses of troglitazone, WY-14643 or vehicle for 2 h followed by IL-1b stimulation (15 min). Consensus κB probe used to assess NFκB DNA binding, consensus Oct-1 and Sp-1 probes used as controls.
EMSA analysis of nuclear protein extracts from (A) myometrial cells, and (B) amnion cells treated with PGA1 or vehicle for 2 h followed by IL-1b stimulation (15 min). Consensus κB probe used to assess NFκB DNA binding, consensus Oct-1 probe used as control. For supershift analysis, extracts were preincubated with antibodies against p50 or p65.
as §2
EMSA analysis of nuclear protein extracts from (A) L− amnion cells and (B) myometrial cells treated with vehicle, PGE2 or IL-1β. Consensus κB probe used.
as §1, §4
Sense and antisense strands (175 nmole/ml each) were incubated in annealing buffer (10 mM Tris-HCl pH7.5, 100 mM NaCl, 1 mM EDTA) for 10 min at 65° C., and allowed to cool at room temperature for 2 h. 3.5 pmole double-stranded oligonucleotides were end-labelled with 0.37 MBq ^32P(γATP) by incubating for 30 min at 37° C. with T4 polynucleotide kinase. Labelled oligonucleotides were recovered by centrifugation at […] for 2 min through MicroSpin G-25 or G-50 sephadex columns (Amersham Biosciences). […]

[4] = test system: IKKα or IKKβ; assay: Western immunoblot of IKK protein expression in myometrial cells
Description: as §3, §5, §6

[5] = test system: COX-2; assay: Western immunoblot of IL-1β-induced COX-2 protein expression in myometrial cells; details: treated 2 h, IL-1β 6 h
Description: as §1
as §5, with “The membranes were blocked overnight in 5% non-fat milk prepared in PBS-T buffer, at 4° C. The blots were incubated with the primary antibody in 1% non-fat milk in PBS-T buffer for 1 h, and washed three times (10 min each) in PBS-T with vigorous shaking.” left out, “instructions. […]” for “instructions.”

| SMILES | Effect of PPARγ overexpression on 15d-PGJ2 inhibition of NF-κB transcriptional activity ([1]; 200 ng PPAR-γ expression vector) | IL-1-induced NF-κB transcriptional activity [1] | IL-1β-induced IκBα and IκBβ degradation [2] | IL-1β-induced p50 phosphorylation [2] | IL-1β-induced p65 nuclear translocation [2] | Accumulation of phosphorylated IκBα ([2]; 2 h, IL-1β 15 min) | IκBα phosphorylation ([2]; cytosolic extracts) | Protein binding to a consensus Oct-1 or Sp-1 probe (control) ([3]; control for NF-κB-specific effect) | IL-1β-induced NF-κB DNA binding [3] | IKKα or IKKβ protein expression [4] | IL-1β-induced COX-2 expression [5] | IL-1β-induced IκBα degradation [2] |
| --- | --- | --- | --- | --- | --- | --- | --- | --- | --- | --- | --- | --- |
| CCCCCC=CC=C1C(=O)C=C[C@@H]1CC=CCCCC(=O)O [15d-PGJ2, 15-deoxy-Δ^12,14prostaglandin J2] | did not promote | inhibited | inhibition | inhibited | inhibited | not detected | inhibits | unaffected | inhibited | had no effect | inhibited | – |
| CCCCC[C@H](O)/C=C/[C@H]1C=CC(=O)[C@@H]1CCCCCCC(=O)O [PGA1, prostaglandin A1] | – | reduced to basal levels | – | – | inhibited | – | – | – | able to inhibit | – | – | inhibited |
